The record followed here is PMC8953565 (2022).

Broadly, the Kd is a measure of binding affinity in units of concentration. A higher Kd goes with lower affinity.

The test system of assay [1] is FAM-MG-36-12 (DNA, aptamer) CCATGCGACGGACAGCACGTGTCACCGCGATCAGCC
In words: graphene oxide FRET fluorescence recovery. The settings on record: 137 mM NaCl, 2.7 mM KCl, 1 mM CaCl2, 0.5 mM MgCl2; DPBS pH 7.4, room temperature; 10 nM aptamer on GO; compound at twice the MG concentration.

Assay [2] relates to FAM-MG-36-17 (DNA, aptamer) CGCAGCGCGGCAGACAGTCAGGCTCAGCACGTGGCA
In words: graphene oxide FRET fluorescence recovery. The settings on record: 137 mM NaCl, 2.7 mM KCl, 1 mM CaCl2, 0.5 mM MgCl2; DPBS pH 7.4, room temperature; 10 nM aptamer on GO; compound at twice the MG concentration.

For assay [3], the system named is FAM-MG-76-16-6A (DNA, aptamer) AAAAAAGTTCGTGGTGTGCTGGATGTCCACCCGACAGCCAGTCACGCGCATCGTACAGACCGTGACACATCCAGCAGCACGA
In words: graphene oxide FRET fluorescence recovery. The settings on record: 137 mM NaCl, 2.7 mM KCl, 1 mM CaCl2, 0.5 mM MgCl2; DPBS pH 7.4, room temperature; 10 nM aptamer on GO; compound at twice the MG concentration.

Assay [4] deals with MG-36-12 (DNA, aptamer) CCATGCGACGGACAGCACGTGTCACCGCGATCAGCC
In words: ITC. The settings on record: 137 mM NaCl, 2.7 mM KCl, 1 mM CaCl2, 0.5 mM MgCl2; DPBS pH 7.4, 25 °C; 2 mM MG into 5 μM aptamer; one-site model.

Assay [5] relates to MG-36-16 (DNA, aptamer) CCACCCGACAGCCAGTCACGCGCATCGTACAGACCG
Description: ITC. The settings on record: 137 mM NaCl, 2.7 mM KCl, 1 mM CaCl2, 0.5 mM MgCl2; DPBS pH 7.4, 25 °C; 2 mM MG into 5 μM aptamer; one-site model.

In assay [6] the test system is MG-36-17 (DNA, aptamer) CGCAGCGCGGCAGACAGTCAGGCTCAGCACGTGGCA
In words: ITC. The settings on record: 137 mM NaCl, 2.7 mM KCl, 1 mM CaCl2, 0.5 mM MgCl2; DPBS pH 7.4, 25 °C; 2 mM MG into 5 μM aptamer; one-site model.

In assay [7] the test system is MG-1 (DNA, aptamer) CCGCCACAGGACAGCCAGTCTGATCGCCATGACGAC
Description: ITC. The settings on record: 137 mM NaCl, 2.7 mM KCl, 1 mM CaCl2, 0.5 mM MgCl2; DPBS pH 7.4, 25 °C; screen with 100 μM candidate and 10 mM MG; weak thermal variation.

The test system of assay [8] is MG-2 (DNA, aptamer) AGCCCGAGCTGCAGCCAGAATGTGCCACGTGTACGT
Description: ITC. The settings on record: 137 mM NaCl, 2.7 mM KCl, 1 mM CaCl2, 0.5 mM MgCl2; DPBS pH 7.4, 25 °C; screen with 100 μM candidate and 10 mM MG; weak thermal variation.

Assay [9] concerns MG-3 (DNA, aptamer) CGAGACACAGTCACGTGCATCCAGTCAGCATGCGTC
Description: ITC. The settings on record: 137 mM NaCl, 2.7 mM KCl, 1 mM CaCl2, 0.5 mM MgCl2; DPBS pH 7.4, 25 °C; screen with 100 μM candidate and 10 mM MG; weak thermal variation.

Assay [10] concerns MG-4 (DNA, aptamer) TGCAACACAACAGCCAGTCATGCCGGTGCACAGTCA
In words: ITC. The settings on record: 137 mM NaCl, 2.7 mM KCl, 1 mM CaCl2, 0.5 mM MgCl2; DPBS pH 7.4, 25 °C; screen with 100 μM candidate and 10 mM MG; weak thermal variation.

Assay [11] concerns MG-5 (DNA, aptamer) CCCCGACAGCCGGCACAATGTGTCTGCCACGGACGT
Description: ITC. The settings on record: 137 mM NaCl, 2.7 mM KCl, 1 mM CaCl2, 0.5 mM MgCl2; DPBS pH 7.4, 25 °C; screen with 100 μM candidate and 10 mM MG; weak thermal variation.

In assay [12] the test system is MG-6 (DNA, aptamer) CGCAACGCGGCAACAGAGCACAGATCGCACAGACTG
In words: ITC. The settings on record: 137 mM NaCl, 2.7 mM KCl, 1 mM CaCl2, 0.5 mM MgCl2; DPBS pH 7.4, 25 °C; screen with 100 μM candidate and 10 mM MG; weak thermal variation.

Assay [13] has as its system MG-7 (DNA, aptamer) CGAGCCGAACGAGACGTCCAGTCCGTGCCCACGCAC
In words: ITC. The settings on record: 137 mM NaCl, 2.7 mM KCl, 1 mM CaCl2, 0.5 mM MgCl2; DPBS pH 7.4, 25 °C; screen with 100 μM candidate and 10 mM MG; weak thermal variation.

Assay [14] deals with MG-8 (DNA, aptamer) TGTGCCCACAACTCCAGTCACGTTCGTCCAGCTCAG
In words: ITC. The settings on record: 137 mM NaCl, 2.7 mM KCl, 1 mM CaCl2, 0.5 mM MgCl2; DPBS pH 7.4, 25 °C; screen with 100 μM candidate and 10 mM MG; weak thermal variation.

For assay [15], the system named is MG-9 (DNA, aptamer) TCTCGCAACAGCCAGCGTCATGTGACCACGGAACCA
In words: ITC. The settings on record: 137 mM NaCl, 2.7 mM KCl, 1 mM CaCl2, 0.5 mM MgCl2; DPBS pH 7.4, 25 °C; screen with 100 μM candidate and 10 mM MG; weak thermal variation.

Assay [16] has as its system MG-10 (DNA, aptamer) CGCGCAGCGGCAGACAGTCAGACTGCGACGCACGTT
Description: ITC. The settings on record: 137 mM NaCl, 2.7 mM KCl, 1 mM CaCl2, 0.5 mM MgCl2; DPBS pH 7.4, 25 °C; screen with 100 μM candidate and 10 mM MG; weak thermal variation.

The test system of assay [17] is MG-11 (DNA, aptamer) CATGCCCAACGACATGCAGCACGTGGCCATGCACAA
Description: ITC. The settings on record: 137 mM NaCl, 2.7 mM KCl, 1 mM CaCl2, 0.5 mM MgCl2; DPBS pH 7.4, 25 °C; screen with 100 μM candidate and 10 mM MG; weak thermal variation.

Assay [18] deals with MG-13 (DNA, aptamer) ACGCATCGCGAACAGCCGTGCCGTGTCCACGTACAG
In words: ITC. The settings on record: 137 mM NaCl, 2.7 mM KCl, 1 mM CaCl2, 0.5 mM MgCl2; DPBS pH 7.4, 25 °C; screen with 100 μM candidate and 10 mM MG; weak thermal variation.

Assay [19] concerns MG-14 (DNA, aptamer) CACCGCCAGGGACAGCCAGTCACGTAGCCCGGAACG
In words: ITC. The settings on record: 137 mM NaCl, 2.7 mM KCl, 1 mM CaCl2, 0.5 mM MgCl2; DPBS pH 7.4, 25 °C; screen with 100 μM candidate and 10 mM MG; weak thermal variation.

Assay [20] deals with MG-15 (DNA, aptamer) CGGCCAGACGACAGCCAGTCACCGGACACGATCAGG
Description: ITC. The settings on record: 137 mM NaCl, 2.7 mM KCl, 1 mM CaCl2, 0.5 mM MgCl2; DPBS pH 7.4, 25 °C; screen with 100 μM candidate and 10 mM MG; weak thermal variation.

Assay [21] concerns MG-18 (DNA, aptamer) CCGCAGCACGGTCGTACAGCAGCTGCCACGGCATCC
Description: ITC. The settings on record: 137 mM NaCl, 2.7 mM KCl, 1 mM CaCl2, 0.5 mM MgCl2; DPBS pH 7.4, 25 °C; screen with 100 μM candidate and 10 mM MG; weak thermal variation.

Assay [22] concerns MG-19 (DNA, aptamer) CGCAGACAGCCAGTCAGGGAGCGTCCAGTCCGACAC
In words: ITC. The settings on record: 137 mM NaCl, 2.7 mM KCl, 1 mM CaCl2, 0.5 mM MgCl2; DPBS pH 7.4, 25 °C; screen with 100 μM candidate and 10 mM MG; weak thermal variation.

For assay [23], the system named is MG-20 (DNA, aptamer) CGCACAGCAAGACAGCCAGTCAACAGCCGCGAATGT
In words: ITC. The settings on record: 137 mM NaCl, 2.7 mM KCl, 1 mM CaCl2, 0.5 mM MgCl2; DPBS pH 7.4, 25 °C; screen with 100 μM candidate and 10 mM MG; weak thermal variation.

Assay [24] concerns MG-21 (DNA, aptamer) CCATGCAGCCAGCGTCCACCGTCCGTACAGTACGTG
In words: ITC. The settings on record: 137 mM NaCl, 2.7 mM KCl, 1 mM CaCl2, 0.5 mM MgCl2; DPBS pH 7.4, 25 °C; screen with 100 μM candidate and 10 mM MG; weak thermal variation.

In assay [25] the test system is MG-22 (DNA, aptamer) CGCGCACAGACAGCGTCATGGCCACGTACAGTTCCT
Description: ITC. The settings on record: 137 mM NaCl, 2.7 mM KCl, 1 mM CaCl2, 0.5 mM MgCl2; DPBS pH 7.4, 25 °C; screen with 100 μM candidate and 10 mM MG; weak thermal variation.

For assay [26], the system named is MG-23 (DNA, aptamer) CGCTACGACAGACAGCGTCGAGCACACAACGTTGCG
Description: ITC. The settings on record: 137 mM NaCl, 2.7 mM KCl, 1 mM CaCl2, 0.5 mM MgCl2; DPBS pH 7.4, 25 °C; screen with 100 μM candidate and 10 mM MG; weak thermal variation.

The subject of assay [27] is MG-24 (DNA, aptamer) ACGCACGTACGGCCAGTCATATGCGCACCGCGTTCA
In words: ITC. The settings on record: 137 mM NaCl, 2.7 mM KCl, 1 mM CaCl2, 0.5 mM MgCl2; DPBS pH 7.4, 25 °C; screen with 100 μM candidate and 10 mM MG; weak thermal variation.

With `CN(C)c1ccc(C(=C2C=CC(=[N+](C)C)C=C2)c2ccc(N(C)C)cc2)cc1`, the binding entry in assay [1], in assay [2] and in assay [3] was “no” each time.
For `CN(C)c1ccc(C(=C2C=CC(=[N+](C)C)C=C2)c2ccccc2)cc1`, the results for the Kd in [4], in assay [5] and in assay [6] were 169.78 µM, 71.94 µM and 102.46 µM, respectively. In addition, the binding entry in assay [7], in assay [8], in [9], in assay [10], in assay [11] and in assay [12] was “no” throughout. Also, the binding entry in assay [13], in [14], in [15], in assay [16], in [17] and in [18] was “no” throughout. In addition, the binding result in assay [19], in assay [20], in assay [21], in assay [22], in [23] and in [24] was “no” in each case. Further, the binding entry in [25], in assay [26] and in assay [27] was “no” throughout.
With `CN(C)c1ccc(C(c2ccccc2)c2ccc(N(C)C)cc2)cc1`, the binding entry in assay [1], in [2] and in [3] was “no” in each case.
Take `Cc1cc(C)nc(NS(=O)(=O)c2ccc(N)cc2)n1`: the binding result in assay [1] and in assay [2] was “no” each time.
`NN1CC(=O)NC1=O`: in [1], the binding result is listed as “no”.
In the case of `NN1CC(CN2CCOCC2)OC1=O` (stereo not shown), the binding result in assay [1] was “no”.
Still for that read-out and setting: as for `NN1CCOC1=O`, the entry is “no”; as for `NNC(N)=O`, “no”.
With `Nc1ccc(S(=O)(=O)Nc2ccccn2)cc1`, the binding entry in [1] was “no”.
On to `O=C(N[C@H](CO)[C@H](O)c1ccc([N+](=O)[O-])cc1)C(Cl)Cl`, for which the binding entry in [1], in assay [2] and in assay [3] was “no” each time.
